In article PMC5384962, “First-in-human studies of seletalisib, an orally bioavailable small-molecule PI3Kδ inhibitor for the treatment of immune and inflammatory diseases” (European Journal of Clinical Pharmacology, 2017):
Like-named read-outs stand apart in the source and are kept apart here.

How the values were obtained:
[1] = Study-1 Part-B multiple ascending dose pharmacokinetics (plasma and urine); format: in vivo, human; conditions: for Fe(0–24) / CLss/F / Cmaxss / Ctrough / Vzss/F / AUC(0-t) / Tmax / Cmax / half-life / CL renal / Ae(0–24): Study-1 Part-B; for Fe(0–24) / CLss/F / Cmaxss / Ctrough / Vzss/F / AUC(0-t) / Cmax / half-life / CL renal / Ae(0–24): geo mean (GeoCV%); for AUC(0-t) / Tmax / Cmax / half-life / CL renal: human, oral; for AUC(0-t) / Tmax / Cmax / half-life: plasma; for AUC(0-t): read-out: AUC(0–24); for CL renal: urine and plasma; for Ae(0–24): urine
From the text: These were phase I, randomised, double-blind, placebo-controlled studies designed to evaluate the safety, tolerability, PK and PD profiles of seletalisib following oral administration of single ascending doses and multiple ascending doses. Study-1 was a first-in-human, double-blind (sponsor-, investigator- and subject-blind) study that had two parts: Part-A evaluated seletalisib (single ascending doses) in healthy adults (including evaluation of food effects; Table 1); Part-B evaluated seletalisib (multiple ascending doses) in healthy adults and subjects with mild-to-moderate psoriasis. Study-2 was also a double-blind study of seletalisib (single and multiple ascending doses) in healthy subjects, which investigated higher doses.
Plasma concentrations of seletalisib were measured by high-performance liquid chromatography with tandem mass spectrometry (see Online Resource S1 for further details). The following PK parameters were determined in each study: AUC for seletalisib, maximum observed plasma concentration of seletalisib after a single dose (Cmax) and at steady-state (Cmaxss), time of occurrence of Cmax (tmax, obtained directly from the observed plasma concentration-time curves), minimum observed plasma concentration of seletalisib at steady-state immediately before the next dose would be administered (Ctrough), apparent terminal half-life, apparent volume of distribution after single dosing (Vz/F) and at steady-state (Vzss/F) and apparent total body clearance after single dosing (CL/F) and at steady-state (CLss/F). Accumulation factor based on AUC(0–24) [R(AUC)] and accumulation factor based on Cmax [R(Cmax)] were determined on multiple dose day 14. The following study-specific PK parameters were also determined: Study-1, total amount of seletalisib excreted in urine (Ae), renal clearance (CLr) and fraction of drug excreted in urine; Study-2, AUC(0–10) in BID dose groups, terminal elimination rate constant in plasma (λz), mean residence time (MRT) and linearity factor (LF [AUC(0–24)ss/AUC]).
Methods for the calculation of seletalisib PK parameters are detailed in Online Resource S1.
Seletalisib PK parameters were calculated via non-compartmental analysis methods from the individual concentration-time data using Phoenix WinNonlin version 6.2 (Certara, Princeton, NJ, USA). Urine (Study-1 only) and plasma PK parameters of seletalisib were reported for each subject and summarised by study part and dose group. Geometric mean and percentage geometric coefficient of variation (GeoCV%) were reported for all parameters except for tmax, which was reported using median and range. Dose proportionality for AUC and Cmax at Day_1 (Study-1 [Part-A & Part-B]; Study-2, single ascending dose-Day_1) and at steady state at Day_14 (Study-1 [Part-B]; Study-2, multiple ascending dose-Day_14) was examined via the power model and reported graphically. In Study-1, an assessment of food effect (fed versus fasted) was made for Cmax and AUC from the data for subjects who received the same dose in fed and fasted states in Part-A.

[2] = Study-1 Part-A safety/tolerability (adverse events), single doses; conditions: for Deaths: Study-1 Part-A
Procedure: Study-1 (Part-A), comprised single doses of seletalisib (1, 5, 10 and 15 mg) administered to healthy subjects using an alternating panel approach (Table 1). Panel 1 consisted of 17 subjects and panel 2 of 18 subjects. In each panel subjects were randomised to one of three sequences and received different ascending doses of seletalisib or placebo over three (panel 1) or two (panel 2) periods (Table 1). In the third period of panel 1, a preliminary assessment of food effect was made, all subjects received seletalisib 5 mg 30 min after a high-fat, high-calorie meal.
Adverse events (AEs), serious AEs (SAEs), routine clinical laboratory parameters, vital signs and ECGs were monitored throughout the study periods and for ≤7 days post-administration of final-dose of seletalisib/placebo. The potential for seletalisib to cause gastrointestinal (GI) tract adverse effects was assessed by careful monitoring of subject reports of AEs such as abdominal pain, bloating, nausea, vomiting and alteration of bowel function (e.g. diarrhoea, constipation or bleeding). A formal safety review was conducted before each dose escalation. In Study-1 (Part-B), the potential for seletalisib to interfere with insulin signalling was assessed by monitoring blood glucose and C-peptide levels as part of the standard laboratory tests and by performance of oral glucose tolerance tests, measuring glucose and C-peptide levels, pre-dose and during exposure in all cohorts.
In each study, the primary population for analysis was the full analysis set (FAS), which comprised all subjects who had received ≥1 dose of seletalisib or placebo. PK analysis was performed on the PK per-protocol set (PK-PPS), which was a subset of the FAS consisting of subjects with no important protocol deviations likely to affect PK variables who received seletalisib; subjects who received placebo were excluded from this analysis. In Study-1 and Study-2, sample sizes of 57 and 36 subjects, respectively, were considered sufficient to permit assessment of the safety and tolerability of seletalisib and were not based on statistical considerations of power and sample size. In Study-1 (Part-A), a panel size of 15 subjects was selected to achieve good estimates of the PK/PD parameters.

[3] = system: basophil degranulation; assay: Study-1 ex vivo basophil degranulation (anti-IgE-driven CD63 expression, whole blood); format: in vivo, human; conditions: Study-1 Part-A, single doses; very high variability
Procedure: Subjects were assessed for basophil degranulation following stimulation at multiple time points, as described in Online Resource S1.
Degranulation of basophils was determined in whole blood by monitoring increased cell surface CD63 expression utilizing flow cytometry in an ex vivo stimulation assay driven by anti-IgE (Study-1) or anti-FcεR1 (Study-2). Briefly, blood was collected in lithium-heparin tubes (BD Biosciences, Oxford, UK) and stimulated with IgE or FcεRI cross-linking antibodies (eBiosciences, Hatfield, UK) for 12 min at 37°C. Following red blood cell lysis by addition of BD FACSlyse (BD Biosciences, Oxford, UK), samples were centrifuged and the supernatant discarded. The cell pellet was washed in PBS and re-suspended in fixative (5% formaldehyde in PBS). CD63 expression was determined on basophils (side-scatter low, CD123+HLA-DR-) and detected by flow cytometry using the BD antibody cocktail containing CD63, CD123, and anti-HLA-DR.

[4] = power model, Study-1 Part B Day 14

## [O-][n+]1cccc(-c2nc3c(Cl)cccc3cc2[C@@H](Nc2ncnc3cccnc23)C(F)(F)F)c1 [Seletalisib, seletalisib]
[1]; Study-1 Part-A and Part-B, parent drug, across dose groups
  geometric mean fraction of drug excreted in urine: ≤ 12%
[1]; 5 mg, Day 1
  Fe(0–24): 4.02 (32.2) %
  Cmax: 122 ng/mL
  Ae(0–24): 0.201 (32.2) mg
[1]; 5 mg, Day 14
  CLss/F: 1.97 (36.2) L/h
  Cmaxss: 175 (29.1) ng/mL
  Ctrough: 66.5 (47.3) ng/mL
  Fe(0–24): 6.80 (40.0) %
  Vzss/F: 62.5 (20.0) L
  half-life: 1320 min
  Ae(0–24): 0.340 (40.0) mg
[1]; 8 mg, Day 1
  Fe(0–24): 4.24 (51.9) %
  Cmax: 201 ng/mL
  Ae(0–24): 0.340 (51.9) mg
[1]; 8 mg, Day 14
  CLss/F: 1.83 (50.2) L/h
  Cmaxss: 285 (41.7) ng/mL
  Ctrough: 113 (67.8) ng/mL
  Fe(0–24): 7.60 (26.3) %
  Vzss/F: 60.3 (40.1) L
  half-life: 1370 min
  Ae(0–24): 0.608 (26.3) mg
[1]; 15 mg, Day 1
  Fe(0–24): 5.42 (48.2) %
  Cmax: 322 ng/mL
  Ae(0–24): 0.812 (48.2) mg
[1]; 15 mg, Day 14
  CLss/F: 2.75 (29.9) L/h
  Cmaxss: 414 (23.0) ng/mL
  Ctrough: 140 (35.0) ng/mL
  Fe(0–24): 12.0 (52.8) %
  Vzss/F: 89.0 (24.9) L
  half-life: 1350 min
  Ae(0–24): 1.80 (52.8) mg
[1]; 5 mg, 5 mg, Day 1
  AUC(0-t): 1560 ng·h/mL
  CL renal: 2.15 mL/min
[1]; 5 mg, 5 mg, Day 1, median (range), read-out: tmax
  Tmax: 4.01 h
[1]; 5 mg, 5 mg, Day 14
  AUC(0-t): 2540 ng·h/mL
  CL renal: 2.23 mL/min
[1]; 5 mg, 5 mg, Day 14, median (range), read-out: tmax
  Tmax: 3 h
[1]; 8 mg, 8 mg, Day 1
  AUC(0-t): 2610 ng·h/mL
  CL renal: 2.17 mL/min
[1]; 8 mg, 8 mg, Day 1, median (range), read-out: tmax
  Tmax: 4 h
[1]; 8 mg, 8 mg, Day 14
  AUC(0-t): 4370 ng·h/mL
  CL renal: 2.32 mL/min
[1]; 8 mg, 8 mg, Day 14, median (range), read-out: tmax
  Tmax: 3.5 h
[1]; 15 mg, 15 mg, Day 1
  AUC(0-t): 3940 ng·h/mL
  CL renal: 3.43 mL/min
[1]; 15 mg, 15 mg, Day 1, median (range), read-out: tmax
  Tmax: 3.01 h
[1]; 15 mg, 15 mg, Day 14
  AUC(0-t): 5460 ng·h/mL
  CL renal: 5.48 mL/min
[1]; 15 mg, 15 mg, Day 14, median (range), read-out: tmax
  Tmax: 3 h
[1]; day 1, fed, range across groups, read-out: time to peak plasma concentration
  Tmax: 3.01 to 4.01 h
[1]; day 14, fed, range across groups, read-out: time to peak plasma concentration
  Tmax: 3 to 3.5 h
[1]; [4]
  Dose proportionality of Cmaxss (ng/mL): Dose (beta), Estimate: 0.78
  Dose proportionality of Cmaxss (ng/mL): Intercept, Estimate: 3.95
[2]; seletalisib total
  Deaths: 0 n (%)
[2]; single dose 1 mg
  Deaths: 0 n (%)
[2]; single dose 5 mg
  Deaths: 0 n (%)
[2]; single dose 5 mg fed
  Deaths: 0 n (%)
[2]; single dose 10 mg
  Deaths: 0 n (%)
[2]; single dose 15 mg
  Deaths: 0 n (%)
[2]; human, in vivo
  Any AE: 13 (39.4) n (%)
  Discontinuations due to AEs: 0 n (%)
  Drug-related AEs: 2 (6.1) n (%)
  Headache: 4 (12.1) n (%)
  Serious AEs: 0 n (%)
  Severe AEs: 0 n (%)
[2]; in vivo
  number of moderate-intensity AEs: three
[3]
  inhibition of basophil degranulation compared with placebo: inhibition of basophil degranulation was observed in all seletalisib-treated groups
